Data from patent US11912693B2, “Compounds for modulating S1P1 activity and methods of using the same” (TREVENA, INC., priority 2017, dated 2024).

Assays:
[1] = biological target: T1, human sphingosine-1-phosphate receptor 1 (S1P1) (Homo sapiens (Human), UniProt P21453); experiment: Inhibition of cAMP production (HTRF cAMP HiRange), S1P1 CHO-K1 cells; format: cell-based; conditions: for Emax: CHO-K1, efficacy (SPAN) normalized to fingolimod, read-out: hS1P1 cAMP SPAN; for hS1P1 cAMP pEC50 / EC50: inhibition of cAMP production, S1P1 CHO-K1 cells; for EC50: read-out: hS1P1 cAMP pEC50 (converted)
How it was run: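 CHO-K1 cells stably co-expressing human S1P1 (C-terminal Prolink tag) and EA-β-arrestin2 were grown in AssayComplete Media 6 at 37° C. and 5% CO2, plated, and incubated overnight. Agonist-driven inhibition of intracellular cAMP was read by TR-FRET with the HTRF cAMP HiRange kit on a PheraStar reader. Potency is pEC50, and efficacy (SPAN) is normalized to fingolimod.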
Target sequence in this assay (P21453 whole entry, looked up): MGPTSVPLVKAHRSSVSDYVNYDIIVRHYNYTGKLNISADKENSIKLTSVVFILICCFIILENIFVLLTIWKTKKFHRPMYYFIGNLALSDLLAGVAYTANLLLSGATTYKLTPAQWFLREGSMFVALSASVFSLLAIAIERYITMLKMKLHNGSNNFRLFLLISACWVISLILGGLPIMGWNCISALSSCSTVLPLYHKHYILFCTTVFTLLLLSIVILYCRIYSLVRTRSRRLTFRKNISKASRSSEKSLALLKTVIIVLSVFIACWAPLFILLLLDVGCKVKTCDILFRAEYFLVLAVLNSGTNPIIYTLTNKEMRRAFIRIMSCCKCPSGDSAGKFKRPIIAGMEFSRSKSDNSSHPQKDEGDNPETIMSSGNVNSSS

[2] = biological target: T1, human sphingosine-1-phosphate receptor 1 (S1P1); experiment: β-Arrestin2 recruitment assay (PathHunter), S1P1 CHO-K1 cells; format: cell-based; conditions: for Emax: CHO-K1, efficacy (SPAN) normalized to fingolimod, read-out: hS1P1 B-arrestin2 SPAN; for hS1P1 B-arrestin2 pEC50 / EC50: β-arrestin2 recruitment, S1P1 CHO-K1 cells; for EC50: read-out: hS1P1 B-arrestin2 pEC50 (converted)
How it was run: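 Enzyme-fragment complementation read-out: agonist-driven β-arrestin2 binding to ProLink-tagged human S1P1 in stable CHO-K1 cells restores β-galactosidase, measured 1 h at room temperature after a 60 min 37° C. compound incubation. Potency as pEC50, efficacy relative to fingolimod (SPAN).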
Target sequence in this assay (P21453 whole entry, looked up): as above
Target sequence in this assay (P32121 whole entry partner, looked up): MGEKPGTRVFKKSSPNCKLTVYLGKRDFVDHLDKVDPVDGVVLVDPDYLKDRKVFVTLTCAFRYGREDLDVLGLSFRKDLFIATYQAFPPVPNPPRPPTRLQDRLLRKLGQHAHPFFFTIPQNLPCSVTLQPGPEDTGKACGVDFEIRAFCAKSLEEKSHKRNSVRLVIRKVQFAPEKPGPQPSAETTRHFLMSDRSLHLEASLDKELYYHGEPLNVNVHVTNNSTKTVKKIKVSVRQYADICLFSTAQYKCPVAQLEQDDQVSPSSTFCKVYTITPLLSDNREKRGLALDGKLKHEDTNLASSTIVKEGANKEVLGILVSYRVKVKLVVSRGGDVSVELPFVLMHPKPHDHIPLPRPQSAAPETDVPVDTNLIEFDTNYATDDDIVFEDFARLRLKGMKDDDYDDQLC

Emax [1] [%]	hS1P1 cAMP pEC50 [1]	Emax [2] [%]	hS1P1 B-arrestin2 pEC50 [2]	EC50 [1] [µM]	EC50 [2] [µM]	SMILES
< 75	–	< 75	–	–	–	Cc1cc(-c2noc(-c3ccc4c(c3)nnn4C3CCCC3)n2)ccn1 [Compound 77]
< 75	>6.5	< 75	<5	–	–	FC(F)Oc1ccc(-c2noc(-c3ccc4c(c3)nnn4C3CCCC3)n2)cc1 [Compound 80, 1-cyclopentyl-5-{3-[4-(difluoromethoxy)phenyl]-1,2,4-oxadiazol-5-yl}-1H-1,2,3-benzotriazole]
> 75	>6.5	> 75	>5	–	–	Brc1ccccc1-c1noc(-c2ccc3c(c2)nnn3C2CC2)n1 [Compound 83, 5-[3-(2-bromophenyl)-1,2,4-oxadiazol-5-yl]-1-cyclopropyl-1H-1,2,3-benzotriazole]
< 75	<6.5	> 75	>5	–	–	FC(F)(F)Oc1ccccc1-c1nc(-c2ccc3c(c2)nnn3C2CCCC2)no1 [Compound 84, 3-(1-cyclopentyl-1H-benzo[d][1,2,3]triazol-5-yl)-5-(2-(trifluoromethoxy)phenyl)-1,2,4-oxadiazole]
< 75	<6.5	< 75	<5	–	–	FC(F)(F)c1cc(-c2noc(-c3ccc4c(c3)nnn4C3CC3)n2)ccc1OCc1ccccc1 [Compound 85, 5-{3-[4-(benzyloxy)-3-(trifluoromethyl)phenyl]-1,2,4-oxadiazol-5-yl}-1-cyclopropyl-1H-1,2,3-benzotriazole]
< 75	<6.5	< 75	<5	–	–	COc1ccc(-c2noc(-c3ccc4c(c3)nnn4C3CCCC3)n2)c2ccccc12 [Compound 91, 1-cyclopentyl-5-[3-(4-methoxynaphthalen-1-yl)-1,2,4-oxadiazol-5-yl]-1H-1,2,3-benzotriazole]
< 75	–	< 75	–	> 0.316	> 10	c1ccc(Cc2noc(-c3ccc4c(c3)nnn4C3CCCC3)n2)cc1 [Compound 92, 5-(3-benzyl-1,2,4-oxadiazol-5-yl)-1-cyclopentyl-1H-1,2,3-benzotriazole]
> 75	<6.5	> 75	<5	–	–	Cc1ccncc1-c1noc(-c2ccc3c(c2)nnn3C2CC2)n1 [Compound 94, 1-cyclopropyl-5-[3-(4-methylpyridin-3-yl)-1,2,4-oxadiazol-5-yl]-1H-1,2,3-benzotriazole]
< 75	<6.5	< 75	<5	–	–	Cc1ccccc1-c1noc(-c2ccc3c(c2)nnn3C2CCOCC2)n1 [Compound 95, 5-[3-(2-methylphenyl)-1,2,4-oxadiazol-5-yl]-1-(oxan-4-yl)-1H-1,2,3-benzotriazole]

Continued, compound first:

SMILES	Emax [1] [%]	hS1P1 cAMP pEC50 [1]	Emax [2] [%]	hS1P1 B-arrestin2 pEC50 [2]	EC50 [1] [µM]	EC50 [2] [µM]
Cc1ccsc1-c1noc(-c2ccc3c(c2)nnn3CC(C)C)n1 [Compound 75, 1-(2-methylpropyl)-5-[3-(3-methylthiophen-2-yl)-1,2,4-oxadiazol-5-yl]-1H-1,2,3-benzotriazole]	< 75	>6.5	> 75	>5	–	–
CCCn1nnc2cc(-c3nc(-c4cc(C)cc(C)c4)no3)ccc21 [Compound 76, 5-[3-(3,5-dimethylphenyl)-1,2,4-oxadiazol-5-yl]-1-propyl-1H-1,2,3-benzotriazole]	< 75	<6.5	< 75	<5	–	–
CC(C)n1nnc2cc(-c3noc(-c4cnccn4)n3)ccc21 [Compound 78, 3-(1-isopropyl-1H-benzo[d][1,2,3]triazol-5-yl)-5-(pyrazin-2-yl)-1,2,4-oxadiazole]	< 75	<6.5	< 75	<5	–	–
CC(C)n1nnc2cc(-c3nc(-c4ccccc4)no3)ccc21 [Compound 79, 5-(3-phenyl-1,2,4-oxadiazol-5-yl)-1-(propan-2-yl)-1H-1,2,3-benzotriazole]	> 75	>6.5	> 75	>5	–	–
COC(=O)Cn1nnc2cc(-c3noc(-c4ccccc4Br)n3)ccc21 [Compound 81, methyl 2-(5-(5-(2-bromophenyl)-1,2,4-oxadiazol-3-yl)-1H-benzo[d][1,2,3]triazol-1-yl)acetate]	> 75	–	< 75	–	> 0.316	> 10
Clc1ccc(-c2noc(-c3ccc4c(c3)nnn4C3CCOCC3)n2)s1 [Compound 82, 5-[3-(5-chlorothiophen-2-yl)-1,2,4-oxadiazol-5-yl]-1-(oxan-4-yl)-1H-1,2,3-benzotriazole]	< 75	<6.5	< 75	<5	–	–
Cc1cc(-c2nc(-c3ccc4c(c3)nnn4C(C)C)no2)ccn1 [Compound 86, 3-(1-isopropyl-1H-benzo[d][1,2,3]triazol-5-yl)-5-(2-methylpyridin-4-yl)-1,2,4-oxadiazole]	< 75	<6.5	> 75	<5	–	–
Cc1ccc(-c2noc(-c3ccc4c(c3)nnn4C3CC3)n2)cn1 [Compound 87, 1-cyclopropyl-5-[3-(6-methylpyridin-3-yl)-1,2,4-oxadiazol-5-yl]-1H-1,2,3-benzotriazole]	< 75	<6.5	< 75	<5	–	–
CC(C)n1nnc2cc(-c3nc(Cc4ccccc4)no3)ccc21 [Compound 88, 5-(3-benzyl-1,2,4-oxadiazol-5-yl)-1-(propan-2-yl)-1H-1,2,3-benzotriazole]	< 75	<6.5	< 75	<5	–	–
CC(C)n1nnc2cc(-c3noc(C4CCOCC4)n3)ccc21 [Compound 89, 5-[5-(oxan-4-yl)-1,2,4-oxadiazol-3-yl]-1-(propan-2-yl)-1H-1,2,3-benzotriazole]	< 75	<6.5	< 75	<5	–	–
COc1ccc(-c2nc(-c3ccc4c(c3)nnn4C(C)C)no2)c(C)c1 [Compound 90, 3-(1-isopropyl-1H-benzo[d][1,2,3]triazol-5-yl)-5-(4-methoxy-2-methylphenyl)-1,2,4-oxadiazole]	> 75	<6.5	> 75	>5	–	–
Brc1ccccc1-c1nc(-c2ccc3[nH]nnc3c2)no1 [Compound 97, 3-(1H-benzo[d][1,2,3]triazol-5-yl)-5-(2-bromophenyl)-1,2,4-oxadiazole]	< 75	<6.5	< 75	<5	–	–
Brc1ccccc1-c1nc(-c2ccc3c(c2)nnn3CC2CC2)no1 [Compound 98, 5-(2-bromophenyl)-3-(1-(cyclopropylmethyl)-1H-benzo[d][1,2,3]triazol-5-yl)-1,2,4-oxadiazole]	> 75	<6.5	> 75	>5	–	–
Cc1ccncc1-c1nc(-c2ccc3c(c2)nnn3C(C)C)no1 [Compound 100, 3-(1-isopropyl-1H-benzo[d][1,2,3]triazol-5-yl)-5-(4-methylpyridin-3-yl)-1,2,4-oxadiazole]	< 75	<6.5	< 75	<5	–	–
